Laboratory results reported in article PMC6155227 (Molecules : A Journal of Synthetic Chemistry and Natural …, 2017).

How the values were obtained:
[1] = tested on: H5N1(A/Vietnam/1203/2004) strain; experiment: microbe, parasite or virus in culture; assay type: cell-based, influenza virus A/Vietnam/1203/2004 (H5N1); conditions: Influenza A virus, H5N1, MDCK
MDCK cells = conditions: dog
avian influenza virus = conditions: mouse, in vivo; cited from earlier work
[2] = tested on: porcine reproductive and respiratory syndrome virus (PRRSV); conditions: cited from earlier work

For `CCCC(=O)c1c(O)c(CC2=C(O)C(C)(C)C(O)=C(C(C)=O)C2=O)c(O)c(Cc2c(O)c(CC3=C(O)C(C)(C)C(O)=C(C(C)=O)C3=O)c(O)c(C(=O)CCC)c2O)c1O` [Dryocrassin ABBA, dryocrassin ABBA], the EC50 ([1]; 72 h, read-out: EC50 anti-influenza virus activity) is given as 16.6 µM, the “50% toxicity concentration (TC50)” value (MDCK cells) is given as “greater than 400 μM” and the “protection of infected mice” value (avian influenza virus) is given as “protect mice infected with avian influenza virus”.

In the case of `CCCC(=O)c1c(O)c(CC2=C(O)C(C)(C)C(O)=C(C(C)=O)C2=O)c(O)c(CC2=C(O)C(C)(C)C(O)=C(C(C)=O)C2=O)c1O` [Filixic acid ABA, filixic acid ABA], the inhibition at 100 µM ([1]; read-out: inhibition rate) is reported as less than 50% and the maximal non-cytotoxic concentration (MDCK cells) is reported as 100 µM.

In the case of `CCCC(=O)c1c(O)c(C)c(O)c(CC2=C(O)C(C)(C)C(O)=C(C(C)=O)C2=O)c1O` [Flavaspidic acid AB, flavaspidic acid AB], the virus replication [2] is given as “inhibit replication”.
